Reference: US8809372B2, “Pyridine derivatives” (Endo Pharmaceuticals, Inc., priority 2011, dated 2014)
pIC50: −log10 of the molar value.

What was measured:
[1] = target: T1, human CYP17 in LNCap-CYP17 cells (Homo sapiens, UniProt P05093); assay: Cell-based human CYP17 inhibition assay, LNCap-CYP17 cells; conditions: 16 hours
T1 construct: expressed in transfected cells
T1 sequence (P05093 1-508): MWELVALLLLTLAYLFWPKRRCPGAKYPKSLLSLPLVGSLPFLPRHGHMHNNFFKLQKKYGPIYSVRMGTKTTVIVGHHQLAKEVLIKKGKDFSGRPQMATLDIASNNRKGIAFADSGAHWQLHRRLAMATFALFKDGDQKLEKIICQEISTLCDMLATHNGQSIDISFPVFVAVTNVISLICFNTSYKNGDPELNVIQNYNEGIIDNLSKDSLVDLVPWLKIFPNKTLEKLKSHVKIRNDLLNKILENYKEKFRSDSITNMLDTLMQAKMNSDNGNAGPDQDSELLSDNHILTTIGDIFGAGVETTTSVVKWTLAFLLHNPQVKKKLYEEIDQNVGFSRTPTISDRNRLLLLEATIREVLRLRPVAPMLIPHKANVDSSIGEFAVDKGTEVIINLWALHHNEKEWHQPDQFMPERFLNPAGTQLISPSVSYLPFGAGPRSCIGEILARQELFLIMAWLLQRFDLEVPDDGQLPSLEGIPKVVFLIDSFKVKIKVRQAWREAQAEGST
Method: Cell-Based Human CYP17 Inhibition Assay
1. H295R Adrenocortical Carcinoma Cells and Growth Media: The media for the H295R Adrenocortical carcinoma cells [NCI-H295A, ATCC Number CRL-2128, American Type Culture Collection, Manassas, Va., US] (500 mL) was a DMEM:F12 Mix 1:1 with 5% (2 mL) BD Nu Serum; 1% (5 mL) ITS+Premix [BD Biosciences] and 1% Penstrep. 2. LNCap-CYP17 Cells and Growth Media: Full length hCYP17a1 gene (NCBI Reference Sequence: NM_000102.3) was cloned in pcDNA3.1(+) vector between HindIII and XhoI site. The pcDNA3.1(+) vector contains the Neomycin resistance gene and was used for selection of stable cell line. The hCYP17a1 containing pcDNA3.1(+) was transfected into LNCap cells to create the LNCap-CYP17 cell line. The media for the LNCaP-CYP17 cells was RPMI 1640, 10% FBS, 1% PenStrep, Geneticin 400 μg/mL.
The H295R cells or LNCaP-hCYP17 cells were subcultured and 30,000 cells per well were seeded in a poly-d lysine plate and incubated overnight at 37° C. The next day the media was removed and 200 μL of fresh media with ^3H3-17α-hydroxy-pregnenolone (1:1000) was added. 50 μL of serially diluted compounds from a 5× plate (5 times the final desired concentration) was added. […]
The plates were incubated overnight (16 hours) at 37° C. […] Following the incubation for 30 minutes, readings for the radiotracer were taken using a Microbeta® trilux.

| Compound | melting point | pIC50 [1] |
| --- | --- | --- |
| CC(O)(c1ccncc1)c1cnc(-c2ccc(F)cc2)s1 (racemic) [Example 7, 1-(2-(4-Fluorophenyl)thiazol-5-yl)-1-(pyridin-4-yl)ethanol] | 229 to 232 °C |  |
| COc1ccc(-c2ccc(C(C)(O)c3ccncc3)nc2)cc1 (racemic) [Example 1, 1-(5-(4-Methoxyphenyl)pyridin-2-yl)-1-(pyridin-4-yl)ethanol] |  | 5.00 to 6.70 |
